# Data as given in US7745571B2, “Peptide inhibitors of IASPP” (Ludwig Institute for Cancer Research, priority 2002, dated 2010).
# Tests used:
# [1] = system: p53 transactivation in U2SO; assay: p53 transactivation in tumour cell line after UV damage of DNA in presence of peptide (FIG. 5); assay type: cell-based, human; settings: U2SO cells after UV damage of DNA
# Text: FIG. 5 illustrates the stimulation of p53 transactivation in a human tumour cell line U2SO after UV damage of DNA in the presence of peptide DGPEETD (SEQ ID NO: 2);
# Bax promoter = assay: Stimulation of the Bax promoter by p53 after incubation with peptides (FIG. 4); assay type: cell-based; settings: after incubation with peptide
# Method: FIG. 4 illustrates the stimulation of the Bax promoter by p53 after incubation with various peptides, in particular DGPEETD (SEQ ID NO: 2);
# For transcriptional assay, 5×10^5 Saos-2 cells were plated 24 hr prior to transfection in 6 cm dishes. Various combinations of plasmid DNA were transfected using the following amounts. All transfection assays contain 1 μg of reporter plasmid. 50 ng of wild type human p53, 100 ng of plasmid expressing C. elegans p53, 4 μg of ASPP2, or 8 μg of ASPP1, 5 μg of human iASPP or 7.5 μg of Ce-iASPP were used as indicated. After transfection, the cells were lysed in Reporter Lysis Buffer (Promega, Wis., USA) 16-24 hr post-wash and assayed using the Luciferase Assay kit (Promega, Wis., USA). The fold activation of a particular reporter was determined by the activity of the transfected plasmid above the activity of vector alone. The fold increase of p53 transactivation activity by ASPP was obtained by the activity p53 in combination with ASPP divided by the activity of p53 alone on the promoters used in each assay.
substance,measurement,setting,value
DGPEETD (p53 inhibitor peptide),stimulation of p53 transactivation,[1],stimulation
same,stimulation of the Bax promoter by p53,Bax promoter,stimulation
